Experimental data published in patent US12337003B2, “Pharmaceutical compositions for combination therapy” (Intercept Pharmaceuticals, Inc., priority 2015, dated 2025).

Assays:
[1] = system: fibrosis induced by common bile duct ligation in mice; test: Bile duct ligation (BDL) model, Sirius-red staining of liver sections; assay type: in vivo, C57BL/6 mice; details: mean ± SD, OCA 5 mg/kg and/or atorvastatin 10 mg/kg orally once daily day 0 to day 6
Protocol: This experiment was performed to evaluate the effects of OCA and atorvastatin alone, and in combination, on fibrosis induced by common bile duct ligation in mice.
Male C57BL/6 mice (6 weeks of age) were obtained from Japan SLC. The animals were maintained in a specific pathogen free facility under controlled conditions of temperature (23±2° C.), humidity (45±10%), lighting (12-hour artificial light and dark cycles; light from 8:00 to 20:00), and air exchange (air exchange rate: more than 40 times/hour). A high pressure (20±4 Pa) was maintained in the experimental room to prevent contamination of the facility. The animals were housed in KN-600 (Natsume Seisakusho, Japan) with a maximum of 6 mice per cage. […]
Viability, clinical signs and behavior were monitored daily. Body weight was recorded daily during the treatment period. Food consumption was measured twice weekly per cage during the treatment period. […]
To visualize collagen deposition, Bouin's-fixed left lateral liver sections were stained using picro-Sirius red solution (Waldeck, Germany). For quantitative analysis of the fibrosis area, bright field images of Sirius red-stained sections were captured around the central vein using a digital camera (DFC295; Leica, Germany) at 100-fold magnification, and the positive areas in 5 fields/section were measured using ImageJ software (National Institute of Health, USA). […]

[2] = system: leukocyte extravasation signaling; test: Hepatic gene expression profiling (RNA sequencing, pathway analysis) in APOE*3Leiden.CETP mice; assay type: in vivo
Protocol: (§1) This experiment was performed to evaluate the effects of OCA and fenofibrate, alone or in combination, on the development of diet induced NASH and liver fibrosis in APOE*3Leiden.CETP transgenic mice. Hepatic gene expression profiling and subsequent pathway analysis were performed to determine whether the combination regulates novel genes not regulated by either monotherapy treatment, and/or more strongly regulates genes also impacted by the monotherapy.
(§2) Mice were fed a high fat chow (HFC) diet for […]. After 15 weeks on the HFC diet, HFC mice were matched into 7 groups based on age, body weight, plasma cholesterol and triglycerides after 4 h fasting. Mice were treated with of OCA and fenofibrate, alone or in combination beginning at week 15 and sacrificed at week 25 in an unfasted state. One week before sacrifice, mice were labeled with D20, by i.p. injection of a bolus of D20 and subsequent addition of 4% D20 to the drinking water. Plasma (EDTA) was obtained by heart puncture and stored at −70° C. The liver was weighed and 4 pieces of liver were isolated: 1 piece (medial lobe) was fixed in 10% formalin (for NASH and fibrosis histology) and 3 pieces (sinister lobe) were snap-frozen in liquid N2 and stored individually at −70° C.
Nucleic acid extraction was performed as described previously in detail (Verschuren et al., 2014). Briefly, total RNA was extracted from individual liver samples using glass beads and RNAzol (Campro Scientific, Veenendaal, The Netherlands). RNA concentration and quality was determined using the Fragment Analyzer (Advanced Analytical Technologies, USA) and the RNA 6000 Nano Lab-on-a-Chip kit and a Bioanalyzer 2100 (Agilent Technologies, Amstelveen, The Netherlands). All samples met the quality requirements and were used in the RNA sequencing procedure.
The NEBNext Ultra Directional RNA library Prep Kit for Illumina was used to process the samples. The sample preparation was performed according to the protocol “NEBNext Ultra Directional RNA Library Prep Kit for Illumina” (NEB #E7420S/L). Briefly, mRNA was isolated from total RNA using oligo-dT magnetic beads. After fragmentation of the mRNA, a cDNA synthesis was performed. This was used for ligation of sequencing adapters and PCR amplification of the resulting product. The quality and yield after sample preparation was measured with the Fragment Analyzer (Advanced Analytical Technologies, USA). The size of the resulting products was consistent with the expected size distribution (a broad peak between 300-500 bp).
Clustering and DNA sequencing using the Illumina […] was performed according manufacturer's protocols. Data was generated using single-end read sequencing protocol obtaining approx. 15 million reads per sample and 75 bp per read. Image analysis, base calling, and quality check was performed with the Illumina data analysis pipeline RTA v2.4.11 to generate the raw data (*.fastq-files).
The reads were mapped to the reference sequence Mus musculus GRCm38.p3 using a short read aligner based on Burrows-Wheeler Transform. The default mismatch rate of 2% (3 mismatches in a read of 150 bases) was used. Based on the mapped read locations in the alignment files (*.bam-files) the frequency of how often a read was mapped on a transcript was determined. The counts were saved to count-files, which served as input for downstream mRNA-seq differential expression analysis. The read counts were loaded into the DESeq package, a statistical package within the R platform. […]

[3] = system: APOE*3Leiden.CETP transgenic mice on high fat diet; test: Diet induced NASH in APOE*3Leiden.CETP mice, hepatic inflammation score; assay type: in vivo; details: for Inflammation (# of inflammatory cell foci): in high fat diet
Protocol: as §1
Male APOE*3Leiden.CETP transgenic mice (9-21 weeks old) were obtained and housed 2-5 mice per cage. The mice were fed a high fat diet containing 24% lard and 1% (w/w) cholesterol. The run in period was 15 weeks on the high fat diet. At week 16, mice were matched based on age, body weight, plasma cholesterol and triglycerides after 4 h fasting.
• Mice (n=15) were fed a high fat diet during the run in weeks 0 to 14. Group 2: HFC control group • Mice (n=15) were fed a high fat diet from weeks 0 to 24. Group 3: HFC+OCA • Mice (n=15) were fed a high fat diet supplemented with OCA at a dose of 10 mg/kg once daily from week 16 to 24. Group 4: HFC+low dose fenofibrate • Mice (n=15) were fed a high fat diet supplemented with fenofibrate at a dose of 10 mg/kg once daily from week 16 to 24. Group 5: HFC+high dose fenofibrate • Mice (n=15) were fed a high fat diet supplemented with fenofibrate at a dose of 40 mg/kg once daily from week 16 to 24. Group 6: HFC+OCA+low dose fenofibrate • Mice (n=15) were fed a high fat diet supplemented with OCA at a dose of 10 mg/kg once daily and fenofibrate at a dose of 10 mg/kg once daily from week 16 to 24. Group 7: HFC+OCA+high dose fenofibrate • Mice (n=15) were fed a high fat diet supplemented with OCA at a dose of 10 mg/kg once daily and fenofibrate at a dose of 40 mg/kg once daily from week 16 to 24. Group 8: Chow control group • Mice (n=8) were feed chow from week 0 to 24. Study Design
as §2
Inflammation is a key feature of NASH. Inflammation was categorized according to the procedure by Liang et al., PlosOne 2014 Dec. 9(12) and scored by quantitatively analyzing the number of inflammatory cells aggregates. In particular, the level of inflammation was evaluated by counting the number of inflammatory foci per field using a 100× magnification (view size of 3.1 mm2; average of five different fields).

[4] = high dose fenofibrate 40 mg/kg, alone or with OCA 10 mg/kg

Row | SMILES | Sirius red-positive area (%) [1] [%] | number of uniquely regulated genes ([2]; Venn diagram, OCA 10 mg/kg, fenofibrate 10 mg/kg, combination) | enrichment analysis of canonical (inflammatory) pathways ([2]; liver mRNA, OCA 10 mg/kg and/or low dose fenofibrate vs HFC) | Inflammation (# of inflammatory cell foci) ([3]; OCA 10 mg/kg and/or low dose fenofibrate 10 mg/kg) | reduction in inflammation [3, 4] [%] | Inflammation (# of inflammatory cell foci) [3, 4]
1 | CC(C)c1c(C(=O)Nc2ccccc2)c(-c2ccccc2)c(-c2ccc(F)cc2)n1CC[C@@H](O)C[C@@H](O)CC(=O)O [ATO, atorvastatin, reference compound] | 2.31 ± 0.63 |  |  |  |  | 
2 | CC(C)OC(=O)C(C)(C)Oc1ccc(C(=O)c2ccc(Cl)cc2)cc1 [fenofibrate] |  | 92 | no effect | 22.0 ± 15.6 | −74 | 7.1 ± 5.9
